Target: RORγ receptor (Homo sapiens, UniProt P51449)
Experiment: RORγ Gal4 reporter assay (Gal4-luciferase, inverse agonist activity)
Format: cell-based
Conditions: Jurkat cells stably over-expressing hRORγ; Gal4-luciferase reporter; overnight incubation; read-out: RORγ Gal4, IC50
Procedure: General RORγ Gal4 Reporter Assay
IC50 values were determined.

Sequence of RORγ receptor (P51449 269-508): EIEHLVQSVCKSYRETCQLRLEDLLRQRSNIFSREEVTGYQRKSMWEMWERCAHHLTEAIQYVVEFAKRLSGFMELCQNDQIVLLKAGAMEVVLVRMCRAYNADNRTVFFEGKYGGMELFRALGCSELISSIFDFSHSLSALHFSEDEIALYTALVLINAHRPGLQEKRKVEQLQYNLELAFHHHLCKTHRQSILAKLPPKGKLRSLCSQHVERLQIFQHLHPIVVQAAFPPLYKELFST

| SMILES | IC50 |
| --- | --- |
| O=C(Nc1ccnc2[nH]ncc12)[C@@H]1CC[C@@]2(S(=O)(=O)c3ccc(F)cc3)c3ccc(C(F)(C(F)(F)F)C(F)(F)F)cc3CC[C@@H]12 [Example 27] | 48 nM |
| O=C([C@@H]1CC[C@@]2(S(=O)(=O)c3ccc(F)cc3)c3ccc(C(F)(C(F)(F)F)C(F)(F)F)cc3CC[C@@H]12)N1CCS(=O)(=O)CC1 [Example 40] | 14 nM |
| O=C([C@@H]1CC[C@@]2(S(=O)(=O)c3ccc(F)cc3)c3ccc(C(F)(C(F)(F)F)C(F)(F)F)cc3CC[C@@H]12)N1CC(F)(F)C(F)(F)C1 [Example 63] | 21 nM |
| O=C([C@@H]1CC[C@@]2(S(=O)(=O)c3ccc(F)cc3)c3ccc(C(F)(C(F)(F)F)C(F)(F)F)cc3CC[C@@H]12)N1CC(F)(F)C[C@@H]1CO [Example 64] | 37 nM |
| O=C([C@@H]1CC[C@@]2(S(=O)(=O)c3ccc(F)cc3)c3ccc(C(F)(C(F)(F)F)C(F)(F)F)cc3CC[C@@H]12)N1CCC(F)(F)C1 [Example 65] | 13 nM |
| NC(=O)[C@H]1CC(F)(F)CN1C(=O)[C@@H]1CC[C@@]2(S(=O)(=O)c3ccc(F)cc3)c3ccc(C(F)(C(F)(F)F)C(F)(F)F)cc3CC[C@@H]12 [Example 66] | 15 nM |
| CS(=O)(=O)N1CCC(NC(=O)[C@@H]2CC[C@@]3(S(=O)(=O)c4ccc(F)cc4)c4ccc(C(F)(C(F)(F)F)C(F)(F)F)cc4CC[C@@H]23)CC1 [Example 77] | 4 nM |
| O=C([C@@H]1CC[C@@]2(S(=O)(=O)c3ccc(F)cc3)c3ccc(C(F)(C(F)(F)F)C(F)(F)F)cc3CC[C@@H]12)N1CCC2(CCNC2=O)CC1 [Example 82] | 18 nM |
| O=C1CC2(CCN(C(=O)[C@@H]3CC[C@@]4(S(=O)(=O)c5ccc(F)cc5)c5ccc(C(F)(C(F)(F)F)C(F)(F)F)cc5CC[C@@H]34)CC2)CN1 [Example 83] | 9 nM |
| O=C1CC2(CCN(C(=O)[C@@H]3CC[C@@]4(S(=O)(=O)c5ccc(F)cc5)c5ccc(C(F)(C(F)(F)F)C(F)(F)F)cc5CC[C@@H]34)CC2)N1 [Example 84] | 5 nM |
| O=C([C@@H]1CC[C@@]2(S(=O)(=O)c3ccc(F)cc3)c3ccc(C(F)(C(F)(F)F)C(F)(F)F)cc3CC[C@@H]12)N1CCC2(CC1)CNC2=O [Example 85] | 14 nM |
| O=C(O)C1CCN(C(=O)[C@@H]2CC[C@@]3(S(=O)(=O)c4ccc(F)cc4)c4ccc(C(F)(C(F)(F)F)C(F)(F)F)cc4CC[C@@H]23)C1 (some centres unmarked) [Example 91] | 40 nM |
| O=C(O)C1CCN(C(=O)[C@@H]2CC[C@@]3(S(=O)(=O)c4ccc(F)cc4)c4ccc(C(F)(C(F)(F)F)C(F)(F)F)cc4CC[C@@H]23)C1 (some centres unmarked) [Example 92] | 41 nM |
| O=C(O)C1CCCC(NC(=O)[C@@H]2CC[C@@]3(S(=O)(=O)c4ccc(F)cc4)c4ccc(C(F)(C(F)(F)F)C(F)(F)F)cc4CC[C@@H]23)C1 (some centres unmarked) [Example 98] | 22 nM |
| O=C(O)C1CCCC(NC(=O)[C@@H]2CC[C@@]3(S(=O)(=O)c4ccc(F)cc4)c4ccc(C(F)(C(F)(F)F)C(F)(F)F)cc4CC[C@@H]23)C1 (some centres unmarked) [Example 99] | 14 nM |
| O=C(O)C1CCCC(NC(=O)[C@@H]2CC[C@@]3(S(=O)(=O)c4ccc(F)cc4)c4ccc(C(F)(C(F)(F)F)C(F)(F)F)cc4CC[C@@H]23)C1 (some centres unmarked) [Example 100] | 53 nM |
| O=C(N[C@H]1CC[C@H](C(=O)O)CC1)[C@@H]1CC[C@@]2(S(=O)(=O)c3ccc(F)cc3)c3ccc(C(F)(C(F)(F)F)C(F)(F)F)cc3CC[C@@H]12 [Example 102] | 33 nM |
| O=C(NC12CCC(C(=O)O)(CC1)CC2)[C@@H]1CC[C@@]2(S(=O)(=O)c3ccc(F)cc3)c3ccc(C(F)(C(F)(F)F)C(F)(F)F)cc3CC[C@@H]12 [Example 103] | 31 nM |
| C[C@H]1CN(C(=O)[C@@H]2CC[C@@]3(S(=O)(=O)c4ccc(F)cc4)c4ccc(C(F)(C(F)(F)F)C(F)(F)F)cc4CC[C@@H]23)CC[C@@H]1C(=O)O [Example 105] | 42 nM |
| O=C(N[C@@H]1CC[C@@]2(S(=O)(=O)c3ccc(F)cc3)c3ccc(C(F)(C(F)(F)F)C(F)(F)F)cc3CC[C@@H]12)C1(O)CCS(=O)(=O)CC1 [Example 123, N-((3R,3aS,9bS)-9b-((4-fluorophenyl)sulfonyl)-7-(perfluoropropan-2-yl)-2,3,3a,4,5,9b-hexahydro-1H-cyclopenta[a]naphthalen-3-yl)-4-hydroxytetrahydro-2H-thiopyran-4-carboxamide 1,1-dioxide] | 2 nM |
| CS(=O)(=O)N1CCC(O)(C(=O)N[C@@H]2CC[C@@]3(S(=O)(=O)c4ccc(F)cc4)c4ccc(C(F)(C(F)(F)F)C(F)(F)F)cc4CC[C@@H]23)CC1 [Example 124] | 7 nM |
| O=C(O)[C@H]1CC[C@H](C(=O)N[C@@H]2CC[C@@]3(S(=O)(=O)c4ccc(F)cc4)c4ccc(C(F)(C(F)(F)F)C(F)(F)F)cc4CC[C@@H]23)CC1 [Example 139] | 24 nM |

| SMILES | IC50 |
| --- | --- |
| O=C(O)C1CC2(C1)CC(C(=O)N[C@@H]1CC[C@@]3(S(=O)(=O)c4ccc(F)cc4)c4ccc(C(F)(C(F)(F)F)C(F)(F)F)cc4CC[C@@H]13)C2 (some centres unmarked) [Example 141] | 7 nM |
| O=C(N[C@@H]1CC[C@@]2(S(=O)(=O)c3ccc(F)cc3)c3ccc(C(F)(C(F)(F)F)C(F)(F)F)cc3CC[C@@H]12)C1(O)CCS(=O)(=O)CC1 [Example 144] | 40 nM |
| Cc1ncn(C)c1C(=O)N[C@@H]1CC[C@@]2(S(=O)(=O)c3ccc(F)cc3)c3ccc(C(F)(C(F)(F)F)C(F)(F)F)cc3CC[C@@H]12 [Example 146] | 13 nM |
| Cc1nnsc1C(=O)N[C@@H]1CC[C@@]2(S(=O)(=O)c3ccc(F)cc3)c3ccc(C(F)(C(F)(F)F)C(F)(F)F)cc3CC[C@@H]12 [Example 147] | 9 nM |
| O=C(N[C@@H]1CC[C@@]2(S(=O)(=O)c3ccc(F)cc3)c3ccc(C(F)(C(F)(F)F)C(F)(F)F)cc3CC[C@@H]12)C1CCS(=O)(=O)CC1 [Example 149, N-((3R,3aS,9bS)-9b-((4-fluorophenyl)sulfonyl)-7-(perfluoropropan-2-yl)-2,3,3a,4,5,9b-hexahydro-1H-cyclopenta[a]naphthalen-3-yl)tetrahydro-2H-thiopyran-4-carboxamide 1,1-dioxide] | 9 nM |
| O=C(N[C@@H]1CC[C@@]2(S(=O)(=O)c3ccc(F)cc3)c3ccc(C(F)(C(F)(F)F)C(F)(F)F)cc3CC[C@@H]12)[C@H](O)C(F)(F)F [Example 157] | 13 nM |
| O=C(N[C@@H]1CC[C@@]2(S(=O)(=O)c3ccc(F)cc3)c3ccc(C(F)(C(F)(F)F)C(F)(F)F)cc3CC[C@@H]12)[C@@H](O)Cc1c[nH]cn1 [Example 158] | 14 nM |
| NC(=O)c1c(F)cc(C(=O)N[C@@H]2CC[C@@]3(S(=O)(=O)c4ccc(F)cc4)c4ccc(C(F)(C(F)(F)F)C(F)(F)F)cc4CC[C@@H]23)cc1F [Example 159] | 3 nM |
| O=C(N[C@@H]1CC[C@@]2(S(=O)(=O)c3ccc(F)cc3)c3ccc(C(F)(C(F)(F)F)C(F)(F)F)cc3CC[C@@H]12)c1cccnc1O [Example 161] | 16 nM |
| O=C(O)c1ccc(C(=O)N[C@@H]2CC[C@@]3(S(=O)(=O)c4ccc(F)cc4)c4ccc(C(F)(C(F)(F)F)C(F)(F)F)cc4CC[C@@H]23)cc1 [Example 162] | 22 nM |
| CS(=O)(=O)N1CC(O)(C(=O)N[C@@H]2CC[C@@]3(S(=O)(=O)c4ccc(F)cc4)c4ccc(C(F)(C(F)(F)F)C(F)(F)F)cc4CC[C@@H]23)C1 [Example 168] | 28 nM |
| O=C(N[C@@H]1CC[C@@]2(S(=O)(=O)c3ccc(F)cc3)c3ccc(C(F)(C(F)(F)F)C(F)(F)F)cc3CC[C@@H]12)c1ccc(=O)[nH]c1 [Example 188] | 9 nM |
| Cn1cc(C(=O)N[C@@H]2CC[C@@]3(S(=O)(=O)c4ccc(F)cc4)c4ccc(C(F)(C(F)(F)F)C(F)(F)F)cc4CC[C@@H]23)ccc1=O [Example 189] | 9 nM |
| O=C(O)[C@H]1CC[C@](O)(C(=O)N[C@@H]2CC[C@@]3(S(=O)(=O)c4ccc(F)cc4)c4ccc(C(F)(C(F)(F)F)C(F)(F)F)cc4CC[C@@H]23)CC1 [Example 191, (1s,4s)-4-(((3R,3aS,9bS)-9b-((4-fluorophenyl)sulfonyl)-7-(perfluoropropan-2-yl)-2,3,3a,4,5,9b-hexahydro-1H-cyclopenta[a]naphthalen-3-yl)carbamoyl)-4-hydroxycyclohexane-1-carboxylic acid] | 54 nM |
| O=C(O)[C@H]1CC[C@](F)(C(=O)N[C@@H]2CC[C@@]3(S(=O)(=O)c4ccc(F)cc4)c4ccc(C(F)(C(F)(F)F)C(F)(F)F)cc4CC[C@@H]23)CC1 [Example 192] | 24 nM |
| O=C(O)C12C3C4C1C1C2C3C41C(=O)N[C@@H]1CC[C@@]2(S(=O)(=O)c3ccc(F)cc3)c3ccc(C(F)(C(F)(F)F)C(F)(F)F)cc3CC[C@@H]12 (some centres unmarked) [Example 193] | 97 nM |
| C[C@H]1C[C@H](C(=O)O)CC[C@H]1C(=O)N[C@@H]1CC[C@@]2(S(=O)(=O)c3ccc(F)cc3)c3ccc(C(F)(C(F)(F)F)C(F)(F)F)cc3CC[C@@H]12 [Example 194] | 32 nM |
| CC(C)(N)C(=O)N[C@@H]1CC[C@@]2(S(=O)(=O)c3ccc(F)cc3)c3ccc(C(F)(C(F)(F)F)C(F)(F)F)cc3CC[C@@H]12 [Example 197] | 30 nM |
| CC(C)(N)[C@H](N)C(=O)N[C@@H]1CC[C@@]2(S(=O)(=O)c3ccc(F)cc3)c3ccc(C(F)(C(F)(F)F)C(F)(F)F)cc3CC[C@@H]12 [Example 198] | 17 nM |
| CC(C)(C(=O)N[C@@H]1CC[C@@]2(S(=O)(=O)c3ccc(F)cc3)c3ccc(C(F)(C(F)(F)F)C(F)(F)F)cc3CC[C@@H]12)N1CCNCC1 [Example 200] | 63 nM |
| CS(=O)(=O)N[C@@H]1CC[C@@]2(S(=O)(=O)c3ccc(F)cc3)c3ccc(C(F)(C(F)(F)F)C(F)(F)F)cc3CC[C@@H]12 [Example 201, N-((3R,3aS,9bS)-9b-((4-fluorophenyl)sulfonyl)-7-(perfluoropropan-2-yl)-2,3,3a,4,5,9b-hexahydro-1H-cyclopenta[a]naphthalen-3-yl)methanesulfonamide] | 7 nM |
| CC1(O)CN(C(=O)N[C@@H]2CC[C@@]3(S(=O)(=O)c4ccc(F)cc4)c4ccc(C(F)(C(F)(F)F)C(F)(F)F)cc4CC[C@@H]23)C1 [Example 204] | 9 nM |
